How the values were obtained:
Assay type in all cases: in vivo
[1] = system: Tobacco Budworm (Heliothis virescens); test: Tobacco budworm insect diet test (B.4); details: 120 h, egg and larval mortality, 5 days, in comparison with untreated controls
Protocol: For evaluating control of tobacco budworm (Heliothis virescens) the test unit consisted of 96-well-microtiter plates containing an insect diet and 15-25 H. virescens eggs.
The compounds were formulated using a solution containing 75% v/v water and 25% v/v DMSO. Different concentrations of formulated compounds were sprayed onto the insect diet at 10 μl, using a custom built micro atomizer, at two replications.
(§1) After application, microtiter plates were incubated at about 28±1° C. and about 80±5% relative humidity for 5 days. Egg and larval mortality was then visually assessed.

[2] = system: Boll Weevil (Anthonomus grandis); test: Boll weevil insect diet test (B.5); details: 120 h, egg and larval mortality, 5 days, in comparison with untreated controls
Protocol: For evaluating control of boll weevil (Anthonomus grandis) the test unit consisted of 96-well-microtiter plates containing an insect diet and 5-10 A. grandis eggs.
The compounds were formulated using a solution containing 75% v/v water and 25% v/v DMSO. Different concentrations of formulated compounds were sprayed onto the insect diet at 5 μl, using a custom built micro atomizer, at two replications.
After application, microtiter plates were incubated at about 25±1° C. and about 75±5% relative humidity for 5 days. Egg and larval mortality was then visually assessed.

[3] = system: Green Peach Aphid (Myzus persicae); test: Green peach aphid artificial diet test, systemic (B.2); details: 72 h, adult aphids on treated artificial diet, 3 days, in comparison with untreated controls
Text: For evaluating control of green peach aphid (Myzus persicae) through systemic means the test unit consisted of 96-well-microtiter plates containing liquid artificial diet under an artificial membrane.
The compounds were formulated using a solution containing 75% v/v water and 25% v/v DMSO. Different concentrations of formulated compounds were pipetted into the aphid diet, using a custom built pipetter, at two replications.
After application, 5-8 adult aphids were placed on the artificial membrane inside the microtiter plate wells. The aphids were then allowed to suck on the treated aphid diet and incubated at about 23±1° C. and about 50±5% relative humidity for 3 days. Aphid mortality and fecundity was then visually assessed.

[4] = system: Rice green leafhopper (Nephotettix virescens); test: Rice green leafhopper rice seedling spray test (B.8); details: adults on sprayed rice seedlings, after 72 hours, in comparison with untreated controls
Protocol: Rice seedlings were cleaned and washed 24 hours before spraying. The active compounds were formulated in 1:1 acetone:water (vol:vol), and 0.01% vol/vol surfactant (Kinetic HV) was added. Potted rice seedlings were sprayed with 5-6 ml test solution, air dried, covered with Mylar cages cages and inoculated with 10 adults. Treated rice plants were kept at about 28-29° C. and relative humidity of about 50-60%. Percent mortality was recorded after 72 hours.

[5] = system: Vetch Aphid (Megoura viciae); test: Vetch aphid broad bean leaf disk test (B.3); details: foliar, 120 h, adult aphids on sprayed leaf disks, 5 days, in comparison with untreated controls
Protocol: For evaluating control of vetch aphid (Megoura viciae) through contact or systemic means the test unit consisted of 24-well-microtiter plates containing broad bean leaf disks.
The compounds were formulated using a solution containing 75% v/v water and 25% v/v DMSO. Different concentrations of formulated compounds were sprayed onto the leaf disks at 2.5 μl, using a custom built micro atomizer, at two replications.
After application, the leaf disks were air-dried and 5-8 adult aphids placed on the leaf disks inside the microtiter plate wells. The aphids were then allowed to suck on the treated leaf disks and incubated at about 23±1° C. and about 50±5% relative humidity for 5 days. Aphid mortality and fecundity was then visually assessed.

[6] = system: Diamond Back Moth (Plutella xylostella); test: Diamond back moth leaf-dip test (B.1); details: 3rd instar larvae on dipped cabbage leaves, 72 hours after treatment, in comparison with untreated controls
Protocol: The active compound was dissolved at the desired concentration in a mixture of 1:1 (vol:vol) distilled water:aceteone. Surfactant (Kinetic HV) was added at a rate of 0.01% (vol/vol). The test solution was prepared at the day of use.
Leaves of cabbage were dipped in test solution and air-dried. Treated leaves were placed in petri dishes lined with moist filter paper and inoculated with ten 3rd instar larvae. Mortality was recorded 72 hours after treatment. Feeding damages were also recorded using a scale of 0-100%.

[7] = system: Red Spider Mite (Tetranychus kanzawai); test: Red spider mite cowpea spray test (B.9); details: mites on sprayed cowpea beans, 72 hours after treatment, in comparison with untreated controls
Protocol: The active compound was dissolved at the desired concentration in a mixture of 1:1 (vol:vol) distilled water:acetone. Add surfactant (Kinetic HV) was added at a rate of 0.01% (vol/vol). The test solution was prepared at the day of use.
Potted cowpea beans of 4-5 days of age were cleaned with tap water and sprayed with 1-2 ml of the test solution using air driven hand atomizer. The treated plants were allowed to air dry and afterwards inoculated with 30 or more mites by clipping a cassava leaf section from rearing population. Treated plants were placed inside a holding room at about 25-27° C. and about 50-60% relative humidity. Percent mortality was assessed 72 hours after treatment.

[8] = system: Mediterranean Fruitfly (Ceratitis capitata); test: Mediterranean fruitfly insect diet test (B.6); details: 120 h, egg and larval mortality, 5 days, in comparison with untreated controls
Protocol: For evaluating control of Mediterranean fruitfly (Ceratitis capitata) the test unit consisted of microtiter plates containing an insect diet and 50-80 C. capitata eggs. The compounds were formulated using a solution containing 75% v/v water and 25% v/v DMSO. Different concentrations of formulated compounds were sprayed onto the insect diet at 5 μl, using a custom built micro atomizer, at two replications.
as §1

[9] = system: Orchid Thrips (Dichromothrips corbetti); test: Orchid thrips floral-immersion test (B.7); details: adult thrips on dipped orchid petals, 72 hours after treatment, in comparison with untreated controls
Protocol: Dichromothrips corbetti adults used for bioassay were obtained from a colony maintained continuously under laboratory conditions. For testing purposes, the test compound is diluted in a 1:1 mixture of acetone:water (vol:vol), plus Kinetic HV at a rate of 0.01% v/v.
Thrips potency of each compound was evaluated by using a floral-immersion technique. All petals of individual, intact orchid flowers were dipped into treatment solution and allowed to dry in Petri dishes. Treated petals were placed into individual re-sealable plastic along with about 20 adult thrips. All test arenas were held under continuous light and a temperature of about 28° C. for duration of the assay. After 3 days, the numbers of live thrips were counted on each petal. The percent mortality was recorded 72 hours after treatment.

O=C(O)c1ccc(C2=NSC(c3cc(Cl)c(F)c(Cl)c3)(C(F)(F)F)C2)c2c1CCC2 (centres unmarked) [Compound 1-1, 7-[5-(3,5-Dichloro-4-fluoro-phenyl)-5-(trifluoromethyl)-4H-isothiazol-3-yl]indane-4-carboxylic acid]
≥ 75%: mortality at 2500 ppm [1] | mortality at 2500 ppm [2] | mortality at 2500 ppm [3]

O=C(NCC(F)(F)F)c1ccc(C2=NSC(c3cc(Cl)c(F)c(Cl)c3)(C(F)(F)F)C2)c2c1CCC2 (centres unmarked) [Compound 1-7, 7-[5-(3,5-Dichloro-4-fluoro-phenyl)-5-(trifluoromethyl)-4H-isothiazol-3-yl]-N-(2,2,2-trifluoroethyl)indane-4-carboxamide]
≥ 75%: mortality at 500 ppm [4] | mortality at 2500 ppm [1] | mortality at 2500 ppm [5] | mortality at 500 ppm [6] | mortality at 2500 ppm [2] | mortality at 500 ppm [7] | mortality at 2500 ppm [8] | mortality at 2500 ppm [3] | mortality at 500 ppm [9]

COC(=O)c1ccc(C2=NSC(c3cc(Cl)c(F)c(Cl)c3)(C(F)(F)F)C2)c2c1CCCC2 (centres unmarked) [Compound 2-1, Methyl 8-[5-(3,5-dichloro-4-fluoro-phenyl)-5-(trifluoromethyl)-4H-isothiazol-3-yl]tetralin-5-carboxylate]
≥ 75%: mortality at 2500 ppm [1] | mortality at 2500 ppm [2] | mortality at 2500 ppm [8]

O=C(O)c1ccc(C2=NSC(c3cc(Cl)c(F)c(Cl)c3)(C(F)(F)F)C2)c2c1CCCC2 (centres unmarked) [Compound 2-2, 8-[5-(3,5-Dichloro-4-fluoro-phenyl)-5-(trifluoromethyl)-4H-isothiazol-3-yl]tetralin-5-carboxylic acid]
≥ 75%: mortality at 2500 ppm [1] | mortality at 2500 ppm [2] | mortality at 2500 ppm [8]

O=C(NCc1ncccn1)c1ccc(C2=NSC(c3cc(Cl)c(F)c(Cl)c3)(C(F)(F)F)C2)c2c1CCCC2 (centres unmarked) [Compound 2-6, 8-[5-(3,5-Dichloro-4-fluoro-phenyl)-5-(trifluoromethyl)-4H-isothiazol-3-yl]-N-(pyrimidin-2-ylmethyl)tetralin-5-carboxamide]
≥ 75%: mortality at 2500 ppm [1] | mortality at 2500 ppm [5] | mortality at 2500 ppm [2] | mortality at 2500 ppm [8] | mortality at 2500 ppm [3]
